Here are results for 6 molecules from patent US20260000657A1, “ANTI-ANGIOGENIC THERAPY AS TREATMENT FOR BENIGN UTERINE DISORDERS” (STICHTING AMSTERDAM UMC, priority 2022, published 2026).

In data set [1] the test system is tamoxifen-induced adenomyosis in CD-1 mice. The experiment in a line: Oral axitinib treatment in tamoxifen-induced adenomyosis mouse model. It counts as in vivo. How it is done: After validation of the model, this model was used to test treatment with anti-vascular endothelial growth factor receptor 2 (VEGFR-2) tyrosine kinase inhibitor axitinib (A-1107; LC Laboratories). To induce adenomyosis, 108 mice received neonatal tamoxifen treatment and were randomly allocated to receive treatment or placebo. On day 42, anti-angiogenesis treatment commenced by oral axitinib treatment or placebo. Axitinib was dissolved in 0.5% sodium carboxymethylcellulose (CMC) at a dose of 25 mg/kg body weight (dose I) or at a dose of 3 mg/kg (dose II). All animals received treatment by daily oral gavage at 5 μl/g bodyweight with axitinib (dose I/II) or placebo (CMC) for a time period of three weeks. During this period, all animals had daily animal welfare observations, and were weighed at a minimum of three times per week. The experimental groups are depicted in FIG. 1.
The uteri were cut in half, one horn (right/left horn randomized) was fixed in 4% formaldehyde at room temperature for 48 hours.
Uterine tissue was embedded in paraffin and sliced into transverse oriented sections of 5 μm, with three sections of one uterine horn on one microscope slide. […] Paraffin-embedded sections were dewaxed in xylene, rehydrated in 100%, 96%, and 70% ethanol, and washed in PBS (pH 7.4). […] After washing in PBS, aspecific binding was blocked by 3% BSA/PBS for one hour. After adding primary antibodies diluted in 0.5% BSA/PBS, sections were incubated overnight at 4° C. […] After washing with PBS, horseradish peroxidase (HRP)—streptavidin (strep) was added (cat. no. ab6734; 1:200; Dako Cytomation) diluted in 0.5% BSA/PBS, for thirty minutes. The sections were then washed in PBS, afterwards 3,3′-Diaminobenzidine (DAB) was added (60 μl DAB; 1 μl 30% H2O2; 1 mL PBS), for eight minutes.

Data set [2] concerns tamoxifen-induced adenomyosis in a murine model. Description: Adenomyosis severity index (grade x affected surface area) in tamoxifen-induced adenomyosis murine model. It counts as in vivo, mice. Particulars: dose II 3 mg/kg, post hoc p<0.05. The text has this: The adenomyosis severity index in tamoxifen-induced adenomyosis in a murine model has been determined based on the abovementioned results of grade of adenomyosis and adenomyosis-affected surface area. Specifically, the grade of adenomyosis (determined on H&E slides as described above) was multiplied by the adenomyosis-affected surface area (determined on vimentin-stained slides). The adenomyosis severity index is the average of all sections analyzed per uterine horn. The adenomyosis severity index was determined for placebo group (CMC-treated mice) and two axitinib-treated groups (dose II—AX3: axitinib 3 mg/kg; dose I—AX25: axitinib 25 mg/kg).

In data set [3] the test system is angiogenesis-related genes (VEGF-R1, VEGF-R2, VEGF-R3, VEGF-A, VEGF-B, CD31) in mouse uteri. Description: Real-time quantitative PCR uterine gene expression profile after axitinib. Type of data set: in vivo, mice. Particulars: RT-PCR. How it is done:
To study the efficacy of axitinib treatment at the molecular level, the expression levels of vascular marker CD31 and angiogenic growth factors VEGF-A, VEGF-B, VEGF receptor R1 (VEGF-R1), VEGF-R2, VEGF-R3, placental growth factor PlGF, and collagen were measured. Real-time quantitative PCR was performed in a random selection of uterine specimens exposed to axitinib (dose II, n=7; dose I, n=6) or placebo (CMC, n=7). The expression of each gene was normalized to the household gene cyclophilin A.

Data set [4] relates to tamoxifen-induced mice model. Particulars: from week 16 of age; cited from earlier work.
The subject of data set [5] is uterus of mice with tamoxifen-induced adenomyosis. The text has this:
Sunitinib is another angiogenesis inhibitor and a highly-fluorescent molecule, therefore it will be used as a model drug to microscopically assess uptake and distribution in uterine tissue after termination.
Intra-uterine delivery of a gel containing slow-release Sunitinib in low dose will also be tested as an alternative treatment for oral Axinitib in mice with tamoxifen-induced adenomyosis.

The test system of data set [6] is uterine adenomyosis in SHN mice. Particulars: cited from earlier work.
The test system of the next data set is CD-1 mice. Description: Validation of tamoxifen-induced mouse adenomyosis model.
Data set [7] has as its system human adenomyosis lesions xenografted in mice. Particulars: administered 14 days after xenografting; cited from earlier work.
[8] abbreviates: dose I 25 mg/kg daily oral gavage three weeks.
[9] abbreviates: dose I 25 mg/kg daily oral gavage three weeks, N = 34.
The mark [10] stands for this setting: dose II 3 mg/kg daily oral gavage three weeks.
[11] abbreviates: dose II 3 mg/kg daily oral gavage three weeks, N = 34.
The mark [12] stands for this setting: tamoxifen 1 mg/kg oral day 2-5 after birth, six weeks, n = 6.
Where [13] appears, read: tamoxifen 1 mg/kg, six weeks, n = 6.

For the molecule `CNC(=O)c1ccccc1Sc1ccc2c(/C=C/c3ccccn3)n[nH]c2c1` [Axitinib, axitinib], in data set [1] (setting [8]), the “No signs of adenomyosis (% of mice)” value is given as 11,8% and the “Presented with adenomyosis (% of mice)” value was 88,2%. Also, in data set [1] (setting [9]), the “Adenomyosis No (number of mice)” value is reported as 4; the “Adenomyosis Yes (number of mice)” value is 30; the “Weight end treatment, Mean” value is listed as 29.9 g. For the same molecule, in data set [1] (dose I 25 mg/kg, N = 34), the “Ectopic glands, median” value worked out at 3.0; the “Grade 0 (% of mice)” value is on record as “(14.7%)”; the “Grade 0 (number of mice)” value is listed as 5; the “Grade 1 (% of mice)” value is on record as “(29.4%)”. Besides, in data set [1] (dose I 25 mg/kg, N = 34), the “Grade 1 (number of mice)” value is recorded as 10, the “Grade 2 (% of mice)” value is recorded as “(50.0%)”, the “Grade 2 (number of mice)” value was found to be 17 and the “Grade 3 (% of mice)” value is “(5.9%)”. For the same molecule, in data set [1] (dose I 25 mg/kg, N = 34), the “Grade 3 (number of mice)” value came to 2; the “Ratio thickest myometrium/transverse uterine diameter, median” value is 0.18; the “Ratio thickest myometrium/uterine wall, median” value is given as 0.49; the “Ratio thinnest myometrium/uterine wall, median” value worked out at 0.21. Further, in data set [1] (dose I 25 mg/kg, N = 34), the “Ratio thinnest/thickest myometrium, median” value came out at 0.26; the “Spread Diffuse (number of mice)” value is on record as 18; the “Spread Focal (number of mice)” value is given as 8; the “Spread None (% of mice)” value is given as “(14.7%)”. Further, the “Spread None (number of mice)” value in data set [1] (dose I 25 mg/kg, N = 34) came to 5. In addition, in data set [1] (dose I + II pooled, N = 68), the “Adenomyosis No (% of mice)” value is given as “(14.9%)”, the “Adenomyosis No (number of mice)” value was found to be 10, the “Adenomyosis Yes (% of mice)” value was “(85.1%)” and the “Adenomyosis Yes (number of mice)” value stood at 57. Also, in data set [1] (dose I + II pooled, N = 68), the “Ectopic areas, Median” value worked out at 1.3; the “Ectopic glands, median” value is given as 2.8; the “Grade 0/1 (% of mice)” value is on record as “(40.3%)”; the “Grade 0/1 (number of mice)” value was found to be 27. For the same molecule, in data set [1] (dose I + II pooled, N = 68), the “Grade 2/3 (% of mice)” value is “(59.7%)”, the “Grade 2/3 (number of mice)” value is listed as 40, the “Spread Diffuse (% of mice)” value is listed as “(54.0%)” and the “Spread Diffuse (number of mice)” value stood at 34. In addition, in data set [1] (dose I + II pooled, N = 68), the “Spread Focal (% of mice)” value is listed as “(30.2%)”, the “Spread Focal (number of mice)” value worked out at 19, the “Spread None (% of mice)” value is recorded as “(15.9%)” and the “Spread None (number of mice)” value is listed as 10. Also, the “Weight end treatment, Mean” value in data set [1] (dose I + II pooled, N = 68) worked out at 28.7 g. Further, in data set [1] (setting [10]), the “No signs of adenomyosis (% of mice)” value was 14,7% and the “Presented with adenomyosis (% of mice)” value is given as 82,4%. In data set [1] (setting [11]), the “Adenomyosis No (number of mice)” value was found to be 5; the “Adenomyosis Yes (number of mice)” value was 28; the “Weight end treatment, Mean” value worked out at 28.4 g. Also, in data set [1] (dose II 3 mg/kg, N = 34), the “Ectopic glands, median” value is reported as 2.7; the “Grade 0 (% of mice)” value is listed as “(15.2%)”; the “Grade 0 (number of mice)” value amounted to 5; the “Grade 1 (% of mice)” value is “(21.2%)”. Moreover, in data set [1] (dose II 3 mg/kg, N = 34), the “Grade 1 (number of mice)” value was 7, the “Grade 2 (% of mice)” value is “(57.6%)”, the “Grade 2 (number of mice)” value came out at 19 and the “Grade 3 (% of mice)” value is on record as “(6.1%)”. Further, in data set [1] (dose II 3 mg/kg, N = 34), the “Grade 3 (number of mice)” value is reported as 2; the “Ratio thickest myometrium/transverse uterine diameter, median” value is 0.18; the “Ratio thickest myometrium/uterine wall, median” value is 0.54; the “Ratio thinnest myometrium/uterine wall, median” value is reported as 0.19. For the same molecule, in data set [1] (dose II 3 mg/kg, N = 34), the “Ratio thinnest/thickest myometrium, median” value was 0.23; the “Spread Diffuse (number of mice)” value is 16.4; the “Spread Focal (number of mice)” value turned out to be 11; the “Spread None (% of mice)” value is listed as “(15.2%)”. Besides, the “Spread None (number of mice)” value in data set [1] (dose II 3 mg/kg, N = 34) is 5. The “Odds ratio, incidence of grade 0/1 vs grade 2/3 adenomyosis, axitinib vs CMC-only” value in data set [1] (pooled dose I + II vs placebo, p=0,048) worked out at 1.33. The “Reduction of adenomyosis severity index compared to placebo-treated mice” value in data set [2] amounted to 48%. In addition, the “Down-regulation of all VEGF receptors (1-3), as well as VEGF-A and VEGF” value in data set [3] (dose I axitinib, p<0.05) is “more than 60%”. Also, in data set [3] (dose I axitinib, p=0.06), the “Decrease of expression of endothelial cell marker CD31” value is recorded as 85%. For the same molecule, in data set [3] (dose II axitinib, p=0.003), the “Down-regulation of VEGF-R1 expression” value was 63%. In addition, the “Decrease of expression of endothelial cell marker CD31” value in data set [3] (dose II axitinib, p=0.04) is reported as 85%.
As for `O=C(O)/C=C/c1ccc(Cn2ccnc2)cc1` [Ozagrel], the Myometrial infiltration result in data set [4] is given as “suppressed myometrial infiltration”.
As for `CCN(CC)CCNC(=O)c1c(C)[nH]c(/C=C2\C(=O)Nc3ccc(F)cc32)c1C` [Sunitinib], the “Uptake in uterine tissue after intra-uterine injection” value in data set [5] (1% and 0.1% of systemic dose, 4 h and 24 h after injection) was “uptake throughout the myometrium”. Further, the “Toxic effects when delivered locally” value in data set [5] (mouse, in vivo) was “without any toxic effects”.
As for `CO[C@@H]1[C@H](OC(=O)NC(=O)CCl)CC[C@]2(CO2)[C@H]1[C@@]1(C)O[C@@H]1CC=C(C)C` [TNP-470], in data set [6] (treatment from one day after pituitary grafting until week 13), the “Development of signs of uterine adenomyosis” value is given as “did not develop signs of uterine adenomyosis”. Further, in data set [6] (treatment until week 13), the “Mean surface area of blood vessels in the endometrium, relative to control group” value is recorded as 60.5%.
`CC/C(=C(\c1ccccc1)c1ccc(OCCN(C)C)cc1)c1ccccc1` [Tamoxifen, tamoxifen]: the “Fibrosis surrounding the adenomyosis affected areas” value in the data set with CD-1 mice (H&E and PTAH staining, tamoxifen-treated group) was “No signs of fibrosis”. Also, the “Weight, Median” value in the data set on CD-1 mice (tamoxifen 1 mg/kg oral day 2-5 after birth, sacrificed after six weeks, n = 6) is 25.2. In the data set with CD-1 mice (setting [12]), the “Adenomyosis No (% of mice)” value is given as “(0%)”, the “Adenomyosis No (number of mice)” value stood at 0, the “Adenomyosis Yes (% of mice)” value is “(100%)” and the “Adenomyosis Yes (number of mice)” value was determined as 6. The “Adenomyosis Yes (% of mice)” value with CD-1 mice (tamoxifen 1 mg/kg oral day 2-5 after birth, six weeks, n = 6, listed as tamoxifen) stood at 100%. Also, in the data set on CD-1 mice (setting [13]), the “Ectopic glands, median” value came to 7.5; the “Grade 0 (% of mice)” value is on record as “(0%)”; the “Grade 0 (number of mice)” value was 0; the “Grade 1 (% of mice)” value is “(0%)”. Besides, in the data set on CD-1 mice (setting [13]), the “Grade 1 (number of mice)” value turned out to be 0, the “Grade 2 (% of mice)” value is “(100%)”, the “Grade 2 (number of mice)” value was determined as 6 and the “Grade 3 (% of mice)” value is “(0%)”. In the data set with CD-1 mice (setting [13]), the “Grade 3 (number of mice)” value is given as 0; the “Grade of adenomyosis developed by all mice” value is on record as “grade 2”; the “Microvessel density, median, Ectopic endometrium” value was found to be 4.8; the “Microvessel density, median, Endometrium” value is 5.9. Also, in the data set on CD-1 mice (setting [13]), the “Microvessel density, median, Myometrium” value was 3.0; the “Ratio thickest myometrium/thickest uterine wall (α-SMA)” value is given as 0.43; the “Ratio thinnest myometrium/thickest myometrium (α-SMA)” value was found to be 0.19; the “Ratio thinnest myometrium/thinnest uterine wall (α-SMA)” value turned out to be 0.18. In the data set on CD-1 mice (setting [13]), the “Spread Diffuse (% of mice)” value is “(66.7%)”, the “Spread Diffuse (number of mice)” value is recorded as 4, the “Spread Focal (% of mice)” value is given as “(33.3%)” and the “Spread Focal (number of mice)” value turned out to be 2.
Take bevacizumab: in data set [7], the “MVD and the expression of VEGF” value is “decreased”.
